Reference: patent publication US5959113A, “Imidazol derivatives” (Hoffmann-La Roche Inc., priority 1994, dated 1999)

What was measured:
mouse hair follicles = assay: Stimulation of cell proliferation in cultured mouse hair follicles; format: cell-based; settings: for EC50: read-out: concentration which resulted in a half-maximum stimulation of the DNA synthesis (EC50 value)
Procedure: Stimulation of cell proliferation in cultured mouse hair follicles
Mouse hair follicles are isolated and cultured according to the method described by Buhl et al., J. Invest. Dermatol. 92, 315 (1989). Whisker parts are removed from CD-1 mice aged 4 days and the hair follicles are carefully separated from surrounding tissue under the microscope. Hair follicles are cultured in M199 medium which contains 20% FBS and the cell proliferation is determined from the incorporation of [^3 H]-thymidinein DNA. The test compounds are dissolved in DMSO and added in serial dilutions in the range of 1×10^-8 to 1×10^-6 M at the beginning of the cultivation. After 1 day 5 μCi/ml of [^3 H]-thymidine are added to the culture medium and the follicles are incubated for a further 3 days. The hair follicles are then washed with phosphate-buffered saline solution in order to remove non-incorporated radioactivity and the DNA is solubilized by incubation with alkali overnight. The radioactivity incorporated into the follicular DNA is then measured using a liquid scintillation counter.

[1] = biological target: T1, EGF-receptor tyrosine kinase (Homo sapiens, UniProt P00533); assay: Inhibition of EGF-receptor Tyrosine Kinase; format: biochemical; settings: EGF-R from A431 cell membranes, 30 °C, 30 min, ATP 10 μM, RR-src peptide 0.75 mM; read-out: IC50 Isolated enzyme EGF-R
T1 construct: A membrane fraction from human A431 cells is used as the enzyme; endogenous in cells; host or cells: A431 cells, membrane fraction (Thom et al., Biochem. J. 168, 187 (1977))
T1 sequence (P00533 25-1210): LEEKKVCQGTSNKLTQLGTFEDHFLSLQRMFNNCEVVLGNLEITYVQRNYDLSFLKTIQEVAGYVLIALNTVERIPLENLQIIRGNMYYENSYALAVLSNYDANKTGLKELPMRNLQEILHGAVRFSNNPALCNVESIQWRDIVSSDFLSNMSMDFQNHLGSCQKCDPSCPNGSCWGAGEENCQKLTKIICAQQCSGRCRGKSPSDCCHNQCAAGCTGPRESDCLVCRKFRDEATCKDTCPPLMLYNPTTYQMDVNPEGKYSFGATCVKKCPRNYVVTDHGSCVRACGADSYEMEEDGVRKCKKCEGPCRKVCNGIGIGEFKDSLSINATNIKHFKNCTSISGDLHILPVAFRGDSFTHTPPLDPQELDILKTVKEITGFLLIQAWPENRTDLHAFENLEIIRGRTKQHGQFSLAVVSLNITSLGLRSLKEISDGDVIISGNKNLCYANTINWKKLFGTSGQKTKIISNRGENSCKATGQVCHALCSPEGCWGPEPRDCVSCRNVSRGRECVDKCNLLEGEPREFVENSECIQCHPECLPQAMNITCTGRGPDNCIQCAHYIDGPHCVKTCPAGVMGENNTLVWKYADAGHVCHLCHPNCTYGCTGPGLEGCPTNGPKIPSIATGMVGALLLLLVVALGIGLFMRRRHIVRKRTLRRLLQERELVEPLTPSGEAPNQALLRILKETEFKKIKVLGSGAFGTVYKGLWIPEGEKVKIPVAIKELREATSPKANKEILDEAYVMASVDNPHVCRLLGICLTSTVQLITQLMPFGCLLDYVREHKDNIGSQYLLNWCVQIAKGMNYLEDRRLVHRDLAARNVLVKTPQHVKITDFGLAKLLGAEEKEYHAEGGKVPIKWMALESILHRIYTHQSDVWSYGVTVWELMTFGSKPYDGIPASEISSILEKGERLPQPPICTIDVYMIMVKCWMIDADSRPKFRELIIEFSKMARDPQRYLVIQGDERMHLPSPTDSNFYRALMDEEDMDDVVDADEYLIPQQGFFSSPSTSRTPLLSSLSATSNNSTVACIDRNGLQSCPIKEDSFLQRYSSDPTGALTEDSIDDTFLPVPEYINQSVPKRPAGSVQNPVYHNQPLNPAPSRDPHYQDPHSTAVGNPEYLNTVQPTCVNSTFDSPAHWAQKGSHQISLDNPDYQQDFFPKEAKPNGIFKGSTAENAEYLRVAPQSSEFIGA
Procedure: Inhibition of EGF-receptor Tyrosine Kinase
The activity of EGF-receptor tyrosine kinase is determined by measuring the transfer of ^32 P-labelled phosphate from ^32 P-γ-ATP (10 μM) to the substrate RR-scr peptide* (0.75 mM). A membrane fraction from human A431 cells is used as the enzyme. It is isolated according to Thom et al., Biochem. J. 168, 187 (1977) and stored at -75° C. (4-6 mg protein/ml). The compounds are tested in 10% DMSO in a concentration of 0.001-100 μM. The incubation is carried out at 30° C. for a period of 30 minutes in Tris buffer (25 mM, pH 7.4) which contains magnesium acetate (30 mM), sodium vanadate (0.5 mM), 0.5% BSA and 0.05% Triton X-100. The membranes are pre-incubated with 2 μM of EGF at 4° C. for 90 minutes. The test is started by adding the enzyme (2 μg of membrane protein) and terminated by adding ice-cold KH2 PO4 (1M, pH 3.0). After centrifugation the labelled peptide is separated from excess ATP in the supernatant by reversed phase HPLC. The peptide fraction is collected and the radioactivity is measured in a standard β-counter or on-line with a radiometer (Berthold). The inibitory activity of the test compound is expressed as the mikromolar concentration which is required for 50% inhibition (IC50 [μM]).
*RR-src peptide=[Arg-Arg-Leu-Ile-Glu-Asp-Ala-Glu-Tyr-Ala-Ala-Arg-Gly]
(§1) The inhibition of selected protein kinases in vitro and the inhibition of cell proliferation in HaCaT-cells by these compounds are set forth in the following Table.

p56^Ick tyrosine kinase = biological target: T2, p56^Ick tyrosine kinase (Homo sapiens, UniProt P06239); assay: Inhibition of p56^Ick tyrosine kinase; format: biochemical; settings: human recombinant p56lck, 30 °C, 30 min, ATP 10 μM, RR-src peptide 0.75 mM; read-out: IC50 Isolated enzyme p56^lck
T2 construct: made in house; host or cells: E. coli
T2 sequence (P06239 whole entry): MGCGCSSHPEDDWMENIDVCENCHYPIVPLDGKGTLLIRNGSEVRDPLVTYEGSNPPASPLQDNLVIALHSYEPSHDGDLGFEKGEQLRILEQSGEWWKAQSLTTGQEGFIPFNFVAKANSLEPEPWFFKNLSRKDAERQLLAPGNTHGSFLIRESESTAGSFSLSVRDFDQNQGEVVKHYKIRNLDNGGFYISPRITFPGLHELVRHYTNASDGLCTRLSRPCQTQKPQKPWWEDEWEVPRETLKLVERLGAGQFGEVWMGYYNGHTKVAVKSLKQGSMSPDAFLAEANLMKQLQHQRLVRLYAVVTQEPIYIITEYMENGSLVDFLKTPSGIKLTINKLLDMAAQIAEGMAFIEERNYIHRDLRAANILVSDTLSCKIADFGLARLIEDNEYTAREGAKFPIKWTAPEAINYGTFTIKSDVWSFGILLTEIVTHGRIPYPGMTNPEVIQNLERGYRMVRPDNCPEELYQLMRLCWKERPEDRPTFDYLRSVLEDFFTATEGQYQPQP
Procedure: Inhibition of p56^Ick tyrosine kinase
The activity of p56^Ick tyrosine kinase is determined by measuring the transfer of ^32 P-labelled phosphate from ^32 P-γ-ATP (10 μM) to the substrate RR-src peptide (0.75 mM). Human recombinant p56^Ick (expressed in E. coli) is used as the enzyme.
It is purified from the soluble fraction by means of a monoclonal antibody column and stored at -75° C. The compounds are tested in 10% DMSO in a concentration of 0.001-100 μM, The incubation is carried out at 30° C. for a period of 30 minutes in HEPES buffer (50 mM, pH 6.9) which contains manganese chloride (11 mM) and 0.5% BSA. The test is started by adding the enzyme and terminated by adding ice-cold KH2 PO4 (1M, pH 3.0). After centrifugation the radiolabelled peptide is separated from excess ATP in the supernatant by reversed phase HPLC. The peptide fraction is collected and the radioactivity is determined in a standard β- counter or on-line with a radiometer (Berthold). The inhibitory activity of the test compound is expressed as the micromolar concentration which is required for 50% inhibition (IC50 [μM]).
as §1

protein kinase C (PKC) = assay: Inhibition of protein kinase C (PKC); format: biochemical; settings: partially purified PKC from hog brain, histone H1, ATP 10 μM, 2 min at 32 °C; read-out: IC50 Isolated enzyme PCK
Procedure: Inhibition of protein kinase C (PKC)
The activity of PKC is measured by measuring the transfer of ^32 P-labelled phosphate from ^32 P-γ-ATP (10 μM) to the substrate histone H1 (200 μg/ml) using partially purified PKC from hog brain (DEAE chromatography according to U. Kikkawa et al., Methods Enzymol. 99, 288, 1983). PKC is activated by phospholipid vesicle prepared by sonicating a mixture of 0.05 ml of phosphatidylserine (10 mg/ml) and 0.005 ml of diolein (10 mg/ml) in 5 ml of Tris HCl buffer (20 mM, pH 7.4). The compounds are tested in DMSO/buffer at a concentration of 0.001-100 μM. The test is started by adding the enzyme, takes 2 minutes at 32° C. and is terminated by adding 20% trichloroacetic acid (containing 1% SDS and 1% sodium pyrophosphate). The precipitated protein with the labelled histone is separated from excess ATP by filtration over a nitrocellulose membrane filter. The radioactivity on the filter is measured in a scintillation counter. The inhibitory activity of the test compound is expressed as the micromolar concentration which is required for 50% inhibition (IC50 [μM]).
as §1

[2] = biological target: cAMP-dependent protein kinase (PKA); assay: Inhibition of cAMP-dependent protein kinase (PKA); format: biochemical; settings: partially purified PKA from hog brain, histone H1, ATP 10 μM, 2 min at 32 °C; read-out: IC50 Isolated enzyme PKA
Procedure: Inhibition of cAMP-dependent protein kinase (PKA)
The activity of PKA is measured by measuring the transfer of ^32 P-labelled phosphate from ^32 P-γ-ATP (10 μM) to the substrate histone H1 (333 μg/ml) using partially purified PKA from hog brain (DEAE chromatography according to U. Kikkawa et al., Methods Enzymol. 99, 288, 1983). PKA is activated by 2 μM of cAMP in Tris HCl buffer (20 mM, pH 7.4). The compounds are tested in DMSO/buffer at a concentration of 0.001-100 μM. The test is started by adding the enzyme, takes 2 minutes at 32° C. and is terminated by adding 20% trichloroacetic acid (containing 1% SDS and 1% sodium pyrophosphate). The precipitated protein, which contains the radiolabelled histone, is separated from excess ATP by filtration through a nitrocellulose membrane filter. The radioactivity on the filter is determined in a scintillation counter. The inhibitory activity of the test compounds is expressed as the micromolar concentration which is required for 50% inhibition (IC50 [μM]).
as §1

HaCaT cells = assay: Inhibition of HaCaT cell proliferation; format: cell-based; settings: Homo sapiens, [3H]-thymidine incorporation, 48 h at 37 °C
Procedure: Inhibition of HaCaT cell proliferation
HaCaT is a spontaneous immortalized human keratinoycte cell line (Boukamp et al. 1988) which has been used many times as a model system for hyperproliferative keratinoyctes. The incorporation of [^3 H]-thymidine was used to quantify the growing cells in the S phase of the cell cycle. The cells were cultivated with a 3:1 mixture of DMEM/F12 medium which had been supplemented with 5% FCS, EGF (10 μg/l), hydrocortisone (400 μg/l), cholera toxin (8.5 μg/l), insulin (5 μg/l), L-glutamine (2 mM) and penicillin/streptomycin. 200 μl of medium were placed in microtitre plates such that each sample contained 5000 cells. The test compounds were added in serial dilutions in the range of 1×10^-8 M to […] at the beginning of the cultivation. The cells were incubated at 37° C. for 48 hours. For the last 6 hours [^3 H]-thymidine was added ([…]). After digesting the cells with trypsin the amount of incorporated radioactivity was quantified with a liquid scintillation counter.
as §1

[3] = [3H]-thymidine incorporation, CD-1 mouse whisker follicles

Structure (SMILES)	EC50 (mouse hair follicles; [3])	stimulation of hair follicle DNA synthesis (compared with controls) (mouse hair follicles; concentration not given, comparison agent, 5760 min)	IC50 [1]	IC50 (p56^Ick tyrosine kinase)	IC50 (protein kinase C (PKC))	IC50 [2]	IC50 (HaCaT cells)	activity at 0.3 µM (mouse hair follicles; 96 h, at 0.3 μM, [3H]-thymidine incorporation, CD-1 mouse whisker follicles, read-out: maximum DNA synthesis value (compared with controls))	activity in this culture system compared with known hypotrichotic agents (mouse hair follicles; mouse hair follicle culture)
Nc1cc(N2CCCCC2)nc(N)[n+]1[O-] [minoxidil, reference compound]	200000 nM	160±15%	–	–	–	–	–	–	–
COC(=O)c1c(C)cc(C)c(-c2nc(-c3ccncc3)c(-c3ccc(Cl)cc3)[nH]2)c1C [Example 9, methyl 3-[5-(4-chlorophenyl)-4-pyridin-4-yl-imidazol-2-yl]2,4,6-trimethylbenzoate]	–	–	140 nM	3800 nM	80000 nM	6000 nM	230 nM	–	–
Nc1cccc(Cl)c1-c1nc(-c2ccncc2)c(-c2ccc(Cl)cc2)[nH]1 [Example 18, 3-chloro-2-[5-(4-chlorophenyl)-4-pyridin-4-yl-imidazol-2-yl]phenylamine]	–	–	290 nM	14000 nM	23000 nM	1800 nM	2000 nM	–	–
Cc1cc(C)c(-c2nc(-c3ccncc3)c(-c3ccc(Cl)cc3)[nH]2)c(C)c1CN1CCOCC1 [Example 11, 4-[3-[5-(4-chlorophenyl)-4-pyridin-4-yl-imidazol-2-yl]-2,4,6,-trimethylbenzyl]morpholine]	–	–	260 nM	5100 nM	> 100000 nM	43000 nM	100 nM	–	–
Cc1cc(C)c(-c2nc(-c3ccncc3)c(-c3ccc(Cl)cc3)[nH]2)c(C)c1O [Example 16, 3-[5-(4-chlorophenyl)-4-pyridin-4-yl-imidazol-2-yl]-2,4,6,-trimethylphenol]	–	–	310 nM	2200 nM	–	–	800 nM	–	–
Cc1cc(C)c(-c2nc(-c3ccncc3)c(-c3ccc(Cl)cc3)[nH]2)c(C)c1 [Example 1, 4-[5-(4-chlorophenyl)-2-(2,4,6-trimethyphenyl)imidazol-4-yl]pyridine]	100 nM	–	340 nM	2200 nM	> 100000 nM	6300 nM	2000 nM	211 ± 17%	exceeded that of known hypotrichotic agents
Cc1cc(C)c(-c2nc(-c3ccncc3)c(-c3ccc(Cl)cc3)[nH]2)c(C)c1CN1CCN(C)CC1 [Example 13, 1-[3-[5-(4-chlorophenyl)-4-pyridin-4-yl-imidazol-2-yl]-2,4,6,-trimethylbenzyl]-4-methylpiperazine]	–	–	50 nM	1800 nM	37000 nM	1500 nM	100 nM	–	–
Cc1cccc(-c2[nH]c(-c3c(C)cc(C)cc3C)nc2-c2ccncc2)c1 [Example 4, 4-[5-(3-methylphenyl)-2-(2,4,6-trimethylphenyl)imidazol-4-yl]pyridine]	–	–	800 nM	6000 nM	> 100000 nM	190000 nM	2000 nM	–	–
CC(C)c1cccc(C(C)C)c1-c1nc(-c2ccncc2)c(-c2ccc(Cl)cc2)[nH]1 [Example 7, 4-[5-(4-chlorophenyl)-2-(2,6-diisopropylphenyl)imidazol-4-yl]pyridine]	–	–	130 nM	3100 nM	100000 nM	470 nM	3500 nM	–	–
Cc1cc(C)c([N+](=O)[O-])c(C)c1-c1nc(-c2ccncc2)c(-c2ccc(Cl)cc2)[nH]1 [Example 15, 4-[5-(4-chlorophenyl)-2-(2,4,6-trimethyl-3-nitrophenyl)-imidazol-4-yl]pyridine]	–	–	780 nM	4950 nM	–	–	670 nM	–	–
Cc1cc(C)c(-c2nc(-c3ccncc3)c(-c3ccc(Cl)cc3)[nH]2)c(C)c1CN(C)C [Example 12, [3-[5-(4-chlorophenyl)-4-pyridin-4-yl-imidazol-2-yl]-2,4,6,-trimethylbenzyl]dimethylamine]	–	–	50 nM	1650 nM	7000 nM	5000 nM	570 nM	–	–
